Values quoted from earlier work in patent US20260240991A1, “METHODS OF HEMATOPOIETIC PRECURSOR CELLS MOBILIZATION” (BioLineRx Ltd., priority 2023, published 2026).
Where two headings read alike, the source gives them in different places. Bridges are numbered along the chain shown (N, C = ends). [ ]: non-standard residue; d: D form. The star is where a group is joined. 2Nal = N[C@@H](Cc1ccc2ccccc2c1)C(=O)O; Benzoyl(4-F) = O=C(c1ccc(F)cc1)*; Cit = NC(=O)NCCC[C@H](N)C(=O)O

Key:
[1] = system: CD34+ cells; settings: patients with MS
[2] = system: circulating CD34+ cells
[3] = system: PB progenitor cells; settings: mice
[4] = system: PB CD34+ cells

Substance | increase in PB CD34+ cells [1] | time of maximum absolute CD34+ count following treatment [1] | increase in BM CD34+ cells ([1]; dose-dependent) | maximal concentration of circulating CD34+ cells ([2]; MS patients, 72 hours following administration) | persistence of elevation in PB CD34+ cells following administration ([2]; Zohren and Bonig) | increase in PB progenitor cells ([3]; agent alone) | time of peak of PB progenitor cell increase following administration of the dose ([3]; agent alone) | PB progenitor cell increase compared with Plerixafor and G-CSF ([3]; combined with G-CSF) | increase in PB progenitor cells over controls ([3]; combined with G-CSF) | tolerability ([4]; human, in vivo) | number of apheresis sessions required ([4]; myeloma patients, 900 μg/kg) | effect on mean absolute PB CD34+ cells ([4]; myeloma patients, dose escalation) | mean PB CD34+ count ([4]; myeloma patients, highest dose tested 900 μg/kg) | number of apheresis sessions required ([4]; myeloma patients, lower doses)
Natalizumab: recombinant humanized monoclonal antibody against d4 subunit of VLA-4 | 7 fold | 4 days | 7 fold | 10.4 CD34+ cells/μL | at least 1 month | – | – | – | – | – | – | – | – | –
4F-benzoyl-Arg-Arg-Nal-Cys-Tyr-Cit-Lys-DLys-Pro-Tyr-Arg-Cit-Cys-Arg-NH2 ({Benzoyl(4-F)}-RR[2Nal]CY[Cit]K[dK]PYR[Cit]CR-NH2; disulfide 4-13 (inferred)) [Motixafortide] | – | – | – | – | – | ≤ 10 fold | 1 to 2 h | higher than seen with a combination of Plerixafor and G-CSF | 78 fold | well-tolerated | 1 | dose-dependent increase | 2.06e+07 kg⁻¹ | 2.25
